Assay [1] relates to Spontaneously hypertensive rats (SHR). The experiment in a line: Blood pressure reduction in vivo assay (radiotelemetry). To be noted: SHR rat, single dose 10 mg/kg p.o. As for the experimental part: The rats are surgically implanted with radio-telemetry transmitters to allow capture of conscious, unrestrained systolic and diastolic BP as well as heart rate.
In vivo studies were conducted to show the effectiveness of a compound in reducing blood pressure due to its angiotensin II receptor antagonist activity, and its ability to induce insulin sensitization in a diabetic rat due to its PPARγ agonist activity.
Spontaneously hypertensive rats (SHR) were implanted with radiotelemetry devices capable of measuring blood pressure (BP) via an aortic cannula and transmitting the data to a receiving pad under the cage. Animals were conscious and had access to food and water ad libitum while blood pressure was monitored continuously. Rats were dosed with vehicle and monitored for 24 hours to establish baseline before administering compound and measuring changes in blood pressure for another 24 hours. Changes in blood pressure were calculated over time and compared to vehicle controls.

In assay [2] the target is T1, Human recombinant AT1 receptor (Homo sapiens, UniProt P30556).
T1 construct: purchased
T1 sequence (P30556 1-359): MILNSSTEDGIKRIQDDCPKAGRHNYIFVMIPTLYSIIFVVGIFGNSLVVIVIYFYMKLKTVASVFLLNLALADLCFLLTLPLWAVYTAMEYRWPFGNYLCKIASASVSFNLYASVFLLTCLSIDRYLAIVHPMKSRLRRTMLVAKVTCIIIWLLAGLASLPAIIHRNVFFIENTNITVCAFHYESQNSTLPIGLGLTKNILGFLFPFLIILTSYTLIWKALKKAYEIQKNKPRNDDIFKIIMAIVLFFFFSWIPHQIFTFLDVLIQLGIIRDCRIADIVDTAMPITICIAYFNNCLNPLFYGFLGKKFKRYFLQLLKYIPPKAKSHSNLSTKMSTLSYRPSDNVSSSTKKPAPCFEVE
Put plainly: AT1 receptor radioligand binding (flashplate). To be noted: 125I Sar1,Ile8-Angiotensin II radioligand. The procedure, abridged:
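Human recombinant AT1 receptor was coated on flashplates and competed against 125I-Sar1,Ile8-angiotensin II at its Kd concentration for 2 h at room temperature. Compounds were tested from […], with nonspecific binding defined by 10 μM angiotensin II. Ki was derived via Cheng-Prusoff.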

A further assay relates to ZDF male rat. Put plainly: Glucose lowering in vivo assay. To be noted: 10 mg/kg p.o. once daily for 28 days; for Difference from Vehicle Control: blood glucose. The text has this: Homozygous expression of this mutation leads to a phenotype of hyperphagia, obesity, insulin resistance, hyperglycemia, and hypertriglyceridemia resulting in uncontrolled diabetes, β-cell failure, severe nephropathy, and proteinuria by 16 weeks of age.
The hypoglycemic activity of the compounds of this invention can be determined by the amount of test compound that delays or suppresses elevations in glucose levels relative to a vehicle without test compound in male ZDF rats.
Male Zucker Diabetic Fatty (ZDF/Crl-Lepr^fa) rats were obtained from Charles River Laboratories (Wilmington, Mass.). Rats were pair housed under a 12-h light/dark cycle with free access to water and Purina 5008 rat chow (Protein 26.8%, fat 16.7%, carbohydrates 56.5% kcal/vol; Purina Mills, Richmond, Ind.). Prior to the onset of diabetic hyperglycemia (fed blood glucose<200 mg/dl) rats were randomly allocated to groups based on HOMA values. The Homeostasis Model Assessment (HOMA) calculation estimates peripheral insulin resistance from corresponding insulin and glucose measurements. Rats were administered a once daily oral dose for 28 days with suspensions of vehicle alone (1.5% carboxymethyl-cellulose plus 0.2% Tween 20), vehicle plus test compound in the range 0.1-100 mg/kg. At the end of the study, an oral glucose tolerance test (OGTT, 2 g/kg dextrose) was conducted to measure glucose excursion. Tail venipuncture in conscious, 1 hr fasted animals at baseline and weekly thereafter, provided sample for blood glucose, serum insulin, triglycerides, cholesterol, and FFA measurements. Glucose levels were determined with a HemoCue Glucose Monitor (Ryan Diagnostics), insulin was determined by ELISA (Alpco), and lipids were determined by Cobas Mira Analyzer (Roche) and by enzymatic assays (Wako). Lipoprotein cholesterol was determined by FPLC following the method of Kieft et al. (Kieft K A, Bocan T M, Krause B R. Rapid on-line determination of cholesterol distribution among plasma lipoproteins after high-performance gel filtration chromatography. J Lipid Res 1991; 32(5): 859-66). Briefly, plasma was separated on a Superose 6HR 10/30 column (Pharmacia) and cholesterol was then measured in-line utilizing a post-column enzymatic cholesterol assay (Roche). Percent of total area for each lipoprotein fraction were calculated. These percent areas were then multiplied by the total plasma cholesterol concentration, yielding the cholesterol concentration in each fraction. Efficacy was determined by comparison to untreated vehicle controls and reference agents and active compounds selected for further evaluation.

The target in assay [3] is T2, human PPARγ LBD bound to Gal4 DBD (Homo sapiens, UniProt P37231).
T2 construct: expressed in transfected cells; host or cells: HepG2
T2 sequence (P37231 238-503 limits assumed): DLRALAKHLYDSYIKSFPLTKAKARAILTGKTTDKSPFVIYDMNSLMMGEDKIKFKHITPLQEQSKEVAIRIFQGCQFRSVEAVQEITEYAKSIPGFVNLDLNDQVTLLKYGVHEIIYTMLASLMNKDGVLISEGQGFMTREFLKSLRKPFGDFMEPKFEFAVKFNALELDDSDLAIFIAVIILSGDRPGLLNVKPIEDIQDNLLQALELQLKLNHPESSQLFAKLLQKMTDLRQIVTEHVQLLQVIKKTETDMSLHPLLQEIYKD
The experiment in a line: PPARγ transfection luciferase reporter assay in HepG2 cells. It counts as cell-based. To be noted: for Emax: HepG2, 24 h, compared to full agonist response (standard TZD full agonist), read-out: PPARγ % activation; for EC50: HepG2, 24 hours exposure. The procedure, abridged: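 HepG2 cells transiently co-transfected with Gal4 DBD–PPARγ LBD, luciferase reporter and β-galactosidase, then exposed 24 h to compound (0.1 nM–100 μM). Luciferase/β-gal ratio gives activation. EC50 is relative to each compound's own maximum; efficacy is % of a reference TZD full agonist.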
Background: Reporter assays use an easily measured gene product as a stand-in for the process of interest.

For orientation: IC50 means the point on the concentration scale where inhibition reaches its midpoint. In general, EC50 refers to the midpoint of the concentration-response curve. Read a high EC50 as weaker potency. Take `CCc1nc2c(C)cc(CCOC)nc2n1[C@H]1CCc2cc(-c3ccccc3-c3nnn[nH]3)ccc21` [Example 13, 3-((1S)-5-(2-(1H-tetrazol-5-yl)phenyl)-2,3-dihydro-1H-inden-1-yl)-2-ethyl-5-(2-methoxyethyl)-7-methyl-3H-imidazo[4,5-b]pyridine]: in assay [1], the Duration of activity is above 20 h and the “Maximal fall in Mean Blood Pressure after single dose of 10 mg/kg p.o. (mmHg)” value (“Maximal fall … of 10 mg/kg p.o. (mmHg)” below) is −46 mmHg. Moreover, the IC50 in assay [2] worked out at 2.5 nM. In the assay with ZDF male rat, the “Blood Glucose (1 h Fast) after single daily dose of 10 mg/kg p.o. for 28 days” value (“Blood Glucose … of 10 mg/kg p.o. for 28 days” below) is 120 mg/dL and the “Difference from Vehicle Control” value is -469 mg/dL. In assay [3], the Emax was 26% and the EC50 worked out at 435 nM.
In the case of `CCc1nc2c(C)cc([C@@H](O)C(C)C)nc2n1[C@H]1CCc2cc(-c3ccccc3-c3nnn[nH]3)ccc21` [Example 10, (S)-1-(3-((1S)-5-(2-(1H-tetrazol-5-yl)phenyl)-2,3-dihydro-1H-inden-1-yl)-2-ethyl-7-methyl-3H-imidazo[4,5-b]pyridin-5-yl)-2-methylpropan-1-ol], in assay [1], the Duration of activity was above 20 h and the “Maximal fall … of 10 mg/kg p.o. (mmHg)” value is −27 mmHg. Moreover, the IC50 in assay [2] came out at 1.6 nM. Further, in the assay with ZDF male rat, the “Blood Glucose … of 10 mg/kg p.o. for 28 days” value stood at 239 mg/dL and the “Difference from Vehicle Control” value is -133 mg/dL. For the same compound, in assay [3], the Emax was 27% and the EC50 was determined as 145 nM.
On to `CCc1nc2c(C)cc(CC(C)(C)O)nc2n1[C@H]1CCc2cc(-c3ccccc3-c3nnn[nH]3)ccc21` [Example 16, 1-(3-((1S)-5-(2-(1H-tetrazol-5-yl)phenyl)-2,3-dihydro-1H-inden-1-yl)-2-ethyl-7-methyl-3H-imidazo[4,5-b]pyridin-5-yl)-2-methylpropan-2-ol], for which, in assay [1], the Duration of activity is above 20 h and the “Maximal fall … of 10 mg/kg p.o. (mmHg)” value is on record as −37 mmHg. Also, in assay [2], the IC50 is 2.9 nM. Moreover, in the assay on ZDF male rat, the “Blood Glucose … of 10 mg/kg p.o. for 28 days” value amounted to 114 mg/dL and the “Difference from Vehicle Control” value is -475 mg/dL. Besides, in assay [3], the Emax amounted to 20% and the midpoint of the response, the EC50, lay at 250 nM.
Take `CCc1nc2c(C)cc(CCO)nc2n1[C@H]1CCc2cc(-c3ccccc3-c3nnn[nH]3)ccc21` [Example 13a, 2-(3-((1S)-5-(2-(1H-tetrazol-5-yl)phenyl)-2,3-dihydro-1H-inden-1-yl)-2-ethyl-7-methyl-3H-imidazo[4,5-b]pyridin-5-yl)ethanol]: in assay [1], the Duration of activity is above 20 h and the “Maximal fall … of 10 mg/kg p.o. (mmHg)” value is given as −28 mmHg. The IC50 in assay [2] is 4.1 nM. In the assay on ZDF male rat, the “Blood Glucose … of 10 mg/kg p.o. for 28 days” value was 112 mg/dL and the “Difference from Vehicle Control” value was -477 mg/dL. In assay [3], the Emax came out at 24% and the EC50 was found to be 415 nM.
As for `CCc1nc2c(C)cc(CC[C@@H](O)C(C)C)nc2n1[C@H]1CCc2cc(-c3ccccc3-c3nnn[nH]3)ccc21` [Example 57, (R)-1-(3-((1S)-5-(2-(1H-tetrazol-5-yl)phenyl)-2,3-dihydro-1H-inden-1-yl)-2-ethyl-7-methyl-3H-imidazo[4,5-b]pyridin-5-yl)-4-methyl pentan-3-ol], the IC50 in assay [2] was found to be 2.5 nM. In assay [3], the Emax was determined as 28% and the response was half-maximal at 285 nM (EC50).
The like results for `CCc1nc2c(C)cc(C(C)(C)OC)nc2n1[C@H]1CCc2cc(-c3ccccc3-c3nnn[nH]3)ccc21` [Example 17, 3-((1S)-5-(2-(1H-tetrazol-5-yl)phenyl)-2,3-dihydro-1H-inden-1-yl)-2-ethyl-5-(2-methoxypropan-2-yl)-7-methyl-3H-imidazo[4,5-b]pyridine] were, in that order, 8.8 nM, 24% and 65 nM.
`CCc1nc2c(C)cc(CCC3(O)CCCCC3)nc2n1[C@H]1CCc2cc(-c3ccccc3-c3nnn[nH]3)ccc21` [Example 52, 1-(2-(3-((1S)-5-(2-(1H-tetrazol-5-yl)phenyl)-2,3-dihydro-1H-inden-1-yl)-2-ethyl-7-methyl-3H-imidazo[4,5-b]pyridin-5-yl)ethyl)cyclohexanol]: the concentration for half-maximal inhibition (IC50) in assay [2] is 1.3 nM. For the same compound, in assay [3], the Emax amounted to 36% and the EC50 came to 290 nM.

The record behind these values is US20100029710A1, “COMPOUNDS HAVING BOTH ANGIOTENSIN II RECEPTOR ANTAGONISM AND PPARy ACTIVATING ACTIVITIES” (Pfizer Products Inc., priority 2006, published 2010).
